Laboratory results taken from ChEMBL document CHEMBL4819133, “Exploiting the HSP60/10 chaperonin system as a chemotherapeutic target for colorectal cancer” (Bioorg Med Chem, 2021).
Activity calls are given as the source filed them. The calls are words filed in the database; no cut-off is given here.

Columns and labels:
HCT-116 [1] = assay: Cytotoxicity against human HCT-116 cells assessed as reduction in cell viability measured after 48 hrs by AlamarBlue assay; assay type: functional, cell-based; conditions: HCT-116, 48 h
DLD-1 [2] = assay: Cytotoxicity against human DLD-1 cells assessed as reduction in cell viability measured after 48 hrs by AlamarBlue assay; assay type: functional, cell-based; conditions: DLD-1, 48 h
HT-29 [3] = assay: Cytotoxicity against human HT-29 cells assessed as reduction in cell viability measured after 48 hrs by AlamarBlue assay; assay type: functional, cell-based; conditions: HT-29, 48 h
FHC = assay: Cytotoxicity against human FHC cells assessed as reduction in cell viability measured after 48 hrs by AlamarBlue assay; assay type: cell-based
[4] = Cytotoxicity against human FHs74Int cells assessed as reduction in cell viability measured after 48 hrs by AlamarBlue assay; assay type: cell-based
[5] = Cytotoxicity against human THLE-3 cells assessed as reduction in cell viability measured after 48 hrs by AlamarBlue assay; assay type: cell-based; conditions: for CC50 at 48 h: THLE-3 cells; for CC50: thle-3, 48 h
[6] = (§1) Cytotoxicity against human HEK293 cells assessed as reduction in cell viability measured after 48 hrs by AlamarBlue assay; assay type: cell-based; conditions: HEK293 cells
HCT-116 [7] = assay: Induction of apoptosis in human HCT-116 cells at 100 uM incubated for 48 hrs by AnnexinV-FITC/PI staining based flow cytometry; assay type: functional, cell-based
E. coli GroEL/ES [8] = biological target: T1, E. coli GroEL/ES (Escherichia coli, UniProt P0A6F5); assay: Inhibition of Escherichia coli GroEL/ES-mediated refolding of the denatured malate dehydrogenase; assay type: protein-complex assay
T1 sequence (P0A6F5 whole entry, looked up): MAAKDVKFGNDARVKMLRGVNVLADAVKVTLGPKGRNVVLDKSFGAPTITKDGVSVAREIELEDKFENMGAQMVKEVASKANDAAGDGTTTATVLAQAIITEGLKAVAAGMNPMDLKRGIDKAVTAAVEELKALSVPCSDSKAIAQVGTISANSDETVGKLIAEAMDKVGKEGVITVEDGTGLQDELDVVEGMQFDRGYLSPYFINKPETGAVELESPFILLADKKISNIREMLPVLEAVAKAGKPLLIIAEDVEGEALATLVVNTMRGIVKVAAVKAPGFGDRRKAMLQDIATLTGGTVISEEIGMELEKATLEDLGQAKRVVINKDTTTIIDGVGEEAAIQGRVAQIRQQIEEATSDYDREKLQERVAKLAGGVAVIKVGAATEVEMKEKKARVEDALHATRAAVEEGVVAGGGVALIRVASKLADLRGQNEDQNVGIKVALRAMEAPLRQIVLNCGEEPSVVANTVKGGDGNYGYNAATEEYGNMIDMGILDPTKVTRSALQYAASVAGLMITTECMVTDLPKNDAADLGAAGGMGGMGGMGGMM

E. coli GroEL/ES [9] = biological target: T1, E. coli GroEL/ES; assay: Inhibition of Escherichia coli GroEL/ES-mediated refolding of the denatured rhodanese; assay type: protein-complex assay
HSP60/HSP10 = HSP60/HSP10 (Homo sapiens, UniProt P10809); assay: Inhibition of human mitochondrial HSP60/10-mediated refolding of the denatured malate dehydrogenase; assay type: mitochondria, Mitochondria
Chain of HSP60/HSP10 (P10809 whole entry): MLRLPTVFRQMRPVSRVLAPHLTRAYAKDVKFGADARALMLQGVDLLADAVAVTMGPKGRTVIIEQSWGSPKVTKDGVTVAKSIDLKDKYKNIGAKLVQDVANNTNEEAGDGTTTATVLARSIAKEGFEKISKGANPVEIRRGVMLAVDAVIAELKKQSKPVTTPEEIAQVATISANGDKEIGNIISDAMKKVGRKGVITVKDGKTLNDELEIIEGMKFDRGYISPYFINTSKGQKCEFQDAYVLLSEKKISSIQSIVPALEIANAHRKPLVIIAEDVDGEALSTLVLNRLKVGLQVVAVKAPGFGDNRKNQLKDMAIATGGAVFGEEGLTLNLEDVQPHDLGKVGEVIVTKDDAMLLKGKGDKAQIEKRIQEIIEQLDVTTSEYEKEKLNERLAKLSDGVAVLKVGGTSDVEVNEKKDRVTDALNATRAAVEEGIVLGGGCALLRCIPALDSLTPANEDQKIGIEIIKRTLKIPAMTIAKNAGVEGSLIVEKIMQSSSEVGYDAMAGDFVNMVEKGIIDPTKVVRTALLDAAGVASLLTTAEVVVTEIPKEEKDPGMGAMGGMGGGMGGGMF
Chain of HSP60/HSP10 (P61604 whole entry, further chain): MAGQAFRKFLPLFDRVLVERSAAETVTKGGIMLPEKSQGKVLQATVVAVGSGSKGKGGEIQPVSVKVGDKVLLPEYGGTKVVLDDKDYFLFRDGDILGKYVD

DLD-1 [10] = assay: Inhibition of clonogenicity in human DLD-1 cells assessed as reduction in number of colony formation incubated for 72 hrs followed by culturing in fresh compound-free medium for 7 days by crystal violet staining based analysis; assay type: functional, cell-based
HT-29 [11] = assay: Inhibition of clonogenicity in human HT-29 cells assessed as reduction in number of colony formation incubated for 72 hrs followed by culturing in fresh compound-free medium for 7 days by crystal violet staining based analysis; assay type: functional, cell-based
HCT-116 [12] = assay: Inhibition of clonogenicity in human HCT-116 cells assessed as reduction in number of colony formation incubated for 72 hrs followed by culturing in fresh compound-free medium for 7 days by crystal violet staining based analysis; assay type: functional, cell-based
DLD-1 [13] = assay: Inhibition of clonogenicity in human DLD-1 cells assessed as reduction in size of colony incubated for 72 hrs followed by culturing in fresh compound-free medium for 7 days by crystal violet staining based analysis; assay type: functional, cell-based
HT-29 [14] = assay: Inhibition of clonogenicity in human HT-29 cells assessed as reduction in size of colony incubated for 72 hrs followed by culturing in fresh compound-free medium for 7 days by crystal violet staining based analysis; assay type: functional, cell-based
HCT-116 [15] = assay: Inhibition of clonogenicity in human HCT-116 cells assessed as reduction in size of colony incubated for 72 hrs followed by culturing in fresh compound-free medium for 7 days by crystal violet staining based analysis; assay type: functional, cell-based
HCT-116 [16] = assay: Inhibition of cell migration in human HCT-116 cells measured at 72 hrs by scratch wound healing assay based phase contrast microscopy; assay type: functional; conditions: HCT-116, 72 h
HCT-116 [17] = assay: Inhibition of cell migration in human HCT-116 cells at 10 uM measured at >=20 hrs by scratch wound healing assay based phase contrast microscopy; assay type: functional; conditions: time hrs >=20
DLD-1 [18] = assay: Inhibition of clonogenicity in human DLD-1 cells assessed as reduction in colony formation at 50 uM incubated for 72 hrs followed by culturing in fresh compound-free medium for 7 days by crystal violet staining based analysis; assay type: functional
HCT-116 [19] = assay: Inhibition of clonogenicity in human HCT-116 cells assessed as reduction in colony formation at 50 uM incubated for 72 hrs followed by culturing in fresh compound-free medium for 7 days by crystal violet staining based analysis; assay type: functional
HT-29 [20] = assay: Inhibition of clonogenicity in human HT-29 cells assessed as reduction in colony formation at 50 uM incubated for 72 hrs followed by culturing in fresh compound-free medium for 7 days by crystal violet staining based analysis; assay type: functional
HCT-116 [21] = assay: Induction of cell death in human HCT-116 cells assessed as loss of cell monolayer integrity and cytoplasm extrusion at 100 uM measured for 72 hrs by phase contrast microscopy; assay type: functional, cell-based
[22] = Inhibition of refolded MDH (unknown origin)-mediated oxidation of NADPH in presence of mesoxalic acid treated with compound after refolding of the denatured enzyme; design: species or system Homo sapiens
[23] = biological target: T2, Thiosulfate sulfurtransferase (Homo sapiens, UniProt Q16762); assay: Inhibition of refolded Rhodanese (unknown origin)-mediated conversion of cyanide to thiocyanate treated with compound after refolding of the denatured enzyme
T2 sequence (Q16762 whole entry): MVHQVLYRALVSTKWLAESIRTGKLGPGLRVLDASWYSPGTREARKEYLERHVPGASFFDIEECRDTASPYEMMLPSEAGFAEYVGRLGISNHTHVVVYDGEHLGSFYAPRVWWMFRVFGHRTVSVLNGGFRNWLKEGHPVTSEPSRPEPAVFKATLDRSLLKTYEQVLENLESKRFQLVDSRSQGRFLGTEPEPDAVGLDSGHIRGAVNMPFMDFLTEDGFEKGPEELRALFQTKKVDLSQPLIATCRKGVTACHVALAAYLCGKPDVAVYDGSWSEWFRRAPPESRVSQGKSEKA

HEK293 = assay: as §1; assay type: cell-based; conditions: hek293, 48 h
HCT-116 [24] = assay: Cytostatic activity in human HCT-116 cells assessed as viable cells at 100 uM incubated for 48 hrs by AnnexinV/PI staining based flow cytometry; assay type: functional, cell-based
HCT-116 [25] = assay: Inhibition of cell migration in human HCT-116 cells at 0.14 to 100 uM measured for 72 hrs by scratch wound healing assay based phase contrast microscopy; assay type: functional; conditions: dose 0.14-100 µM
HCT-116 [26] = assay: Induction of apoptosis in human HCT-116 cells assessed as compact cell monolayer at 100 uM measured for 72 hrs by phase contrast microscopy; assay type: functional, cell-based

Row | Structure (SMILES) | EC50 (HCT-116 [1]) [µM] | EC50 (DLD-1 [2]) [µM] | EC50 (HT-29 [3]) [µM] | CC50 (FHC) [µM] | CC50 [4] [µM] | CC50 at 48 h [5] [µM] | CC50 at 48 h [6] [µM] | Activity (HCT-116 [7]) | IC50 (E. coli GroEL/ES [8]) [µM] | IC50 (E. coli GroEL/ES [9]) [µM] | IC50 (HSP60/HSP10) [µM] | EC50 (DLD-1 [10]) [µM] | EC50 (HT-29 [11]) [µM] | EC50 (HCT-116 [12]) [µM] | EC50 (DLD-1 [13]) [µM] | EC50 (HT-29 [14]) [µM] | EC50 (HCT-116 [15]) [µM] | EC50 (HCT-116 [16]) [µM] | IC50 [22] [µM] | IC50 [23] [µM] | further results
1 | Cc1ccc(S(=O)(=O)Nc2ccc(-c3nc4cc(NS(=O)(=O)c5ccc(C)cc5)ccc4o3)cc2)cc1 | 5.9 | 13 | 11 | 51 | 74 | 15 | 32 | Active | 27 | 30 | > 100 | 16 | 13 | 14 | 12 | 10 | 15 | 9 | > 62.5 | > 100 | inhibition (DLD-1 [10]): Dose-Dependent Effect; inhibition (HT-29 [11]): Dose-Dependent Effect; inhibition (HCT-116 [12]): Dose-Dependent Effect; inhibition (DLD-1 [13]): Dose-Dependent Effect; inhibition (HT-29 [14]): Dose-Dependent Effect; inhibition (HCT-116 [15]): Dose-Dependent Effect; inhibition (HCT-116 [17]): Active; inhibition at 50 µM (DLD-1 [18]): 100%; inhibition at 50 µM (HCT-116 [19]): 100%; inhibition at 50 µM (HT-29 [20]): 100%; Activity (HCT-116 [21]): Active
2 | COc1ccc(S(=O)(=O)Nc2ccc3oc(-c4ccc(NS(=O)(=O)c5cc(F)ccc5OC)cc4)nc3c2)cc1 | 15 | 18 | 15 | > 100 | > 100 |  |  |  | 18 | 30 | > 100 |  |  |  |  |  |  |  | > 62.5 | > 100 | CC50 [5]: 25 µM; CC50 (HEK293): 24 µM
3 | COc1ccc(S(=O)(=O)Nc2ccc3oc(-c4ccc(NC(=O)C5CCN(C(C)=O)CC5)cc4)nc3c2)cc1 | 15 | 15 | 16 | > 100 | 84 |  |  |  | 38 | 61 | 24 |  |  |  |  |  |  |  | > 62.5 | > 100 | CC50 [5]: 31 µM; CC50 (HEK293): 34 µM
4 | COc1c(Br)cccc1C(=O)Nc1ccc(Sc2nc3ccccc3s2)c(Cl)c1 | 8.5 | 10 | 11 | > 100 | > 100 | 14 | 40 | Active | 37 | 16 |  | 11 | 27 | 11 | 10 | 13 | 12 | 5.5 | > 62.5 |  | inhibition (DLD-1 [10]): Dose-Dependent Effect; inhibition (HT-29 [11]): Dose-Dependent Effect; inhibition (HCT-116 [12]): Dose-Dependent Effect; inhibition (DLD-1 [13]): Dose-Dependent Effect; inhibition (HT-29 [14]): Dose-Dependent Effect; inhibition (HCT-116 [15]): Dose-Dependent Effect; inhibition (HCT-116 [17]): Active; inhibition at 50 µM (DLD-1 [18]): 100%; inhibition at 50 µM (HCT-116 [19]): 100%; inhibition at 50 µM (HT-29 [20]): 100%; Activity (HCT-116 [21]): Active
5 | O=C(Nc1ccc(Sc2nc3ccccc3s2)c(Cl)c1)c1cccc(Br)c1O | 12 | 22 | 20 | > 100 | > 100 | 18 | 68 | Active | 10 | 5.9 | 7.7 | 21 | 32 | 17 | 11 | 12 | 9.1 | 2 | > 62.5 |  | inhibition (DLD-1 [10]): Dose-Dependent Effect; inhibition (HT-29 [11]): Dose-Dependent Effect; inhibition (HCT-116 [12]): Dose-Dependent Effect; inhibition (DLD-1 [13]): Dose-Dependent Effect; inhibition (HT-29 [14]): Dose-Dependent Effect; inhibition (HCT-116 [15]): Dose-Dependent Effect; inhibition (HCT-116 [17]): Active; inhibition at 50 µM (DLD-1 [18]): 100%; inhibition at 50 µM (HCT-116 [19]): 100%; inhibition at 50 µM (HT-29 [20]): 100%; Activity (HCT-116 [21]): Active
6 | COc1ccc(S(=O)(=O)Nc2ccc3oc(-c4ccc(NC(=O)c5cccc(C)c5[N+](=O)[O-])cc4)nc3c2)cc1 | 4.4 | 1.5 |  | > 100 | > 100 |  |  |  | 33 | 28 | 72 | > 50 | 26 | 19 | 1.6 | 2 | 2.6 | 2.3 | > 62.5 | > 100 | CC50 [5]: 22 µM; CC50 (HEK293): 12 µM; Activity (HCT-116 [24]): Active; inhibition (HCT-116 [25]): Active; inhibition (DLD-1 [18]): Active; inhibition (HCT-116 [19]): Active; inhibition (HT-29 [20]): Active; Activity (HCT-116 [26]): inactive
